Experimental findings from patent US20200069691A1, “HETEROCYCLIC COMPOUNDS AS HIV PROTEASE INHIBITORS” (Merck Sharp & Dohme Corp., priority 2016, published 2020) are described below.

The target of the assay is T1, wild-type HIV-1 protease (Human immunodeficiency virus type 1 group M subtype B, UniProt P04585).
T1 construct: Escherichia coli expressed wild-type HIV-1 protease protein
As to the kind of experiment: Assay for Inhibition of Microbial Expressed HIV Protease (peptide substrate cleavage, LC-MS/MS readout). In kind it is biochemical. The note with it: E. coli expressed wild-type HIV-1 protease, mean of at least two independent experiments, read-out: HIV Pr Enzyme HIV1 PR IC50. The method in brief: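 E. coli-expressed wild-type HIV-1 protease ([…]) was preincubated with inhibitor 30 min at room temperature in pH 5.5 acetate buffer (100 mM NaCl, 0.1% BSA). Then 400 μM octapeptide substrate was added and reacted 1 h at 30 °C; inhibition came from LC-MS/MS product peak areas, mean of ≥2 experiments.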

In the case of `N=C1NC(c2ccc(F)cc2)(c2cccc(Br)c2)C(=O)N1Cc1cccc(C(=O)N2Cc3ccccc3C2)c1` (centres unmarked) [Compound 289, 5-(3-bromophenyl)-3-[3-(1,3-dihydro-2H-isoindol-2-ylcarbonyl)benzyl]-5-(4-fluorophenyl)-2-iminoimidazolidin-4-one], the IC50 (usually the concentration at which inhibition is half-maximal) amounted to 0.0361 µM. The same measure for `N=C1NC(c2ccccc2)(c2ccccc2)C(=O)N1Cc1cccc(C(=O)N2Cc3cncnc3C2)c1` [Compound 310, 3-[3-(5,7-dihydro-6H-pyrrolo[3,4-d]pyrimidin-6-ylcarbonyl)benzyl]-2-imino-5,5-diphenylimidazolidin-4-one]: 0.0517 µM. Regarding `N=C1NC(c2ccccc2)(c2ccccc2)C(=O)N1Cc1cc(F)cc(C(=O)N2CCn3c(nnc3C(F)(F)F)C2)c1` [Compound 341], the IC50 was found to be 0.0775 µM. On to `N=C1N[C@](C[C@@H]2CCOC2)(c2ccccc2)C(=O)N1Cc1ccc(C(F)(F)F)c(C(=O)N2Cc3nccnc3C2)c1` [Compound 128, (5R)-3-[3-(5,7-dihydro-6H-pyrrolo[3,4-b]pyrazin-6-ylcarbonyl)-4-(trifluoromethyl)-benzyl]-2-imino-5-phenyl-5-[(3R)-tetrahydrofuran-3-ylmethyl]-imidazolidin-4-one], for which the concentration for half-maximal inhibition (IC50) turned out to be 0.0679 µM. The same measure for `CC(C)CC1(c2ccccc2)NC(=N)N(Cc2cccc(C(=O)N3CCC(n4c(=O)[nH]c5nc(F)ccc54)CC3)c2)C1=O` (centres unmarked) [Compound 346, 5-fluoro-1-{1-[(3-{[2-imino-4-(2-methylpropyl)-5-oxo-4-phenylimidazolidin-1-yl]methyl}phenyl)-carbonyl]piperidin-4-yl}-1,3-dihydro-2H-imidazo[4,5-b]pyridin-2-one]: 0.0825 µM; for `N#Cc1ncc2c(n1)CN(C(=O)c1ccnc(CN3C(=N)NC(c4ccccc4)(c4ccccc4)C3=O)c1)C2` [Compound 397, 6-({2-[(2-imino-5-oxo-4,4-diphenylimidazolidin-1-yl)methyl]pyridin-4-yl}carbonyl)-6,7-dihydro-5H-pyrrolo[3,4-d]pyrimidine-2-carbonitrile]: 0.0181 µM; for `Cc1nonc1N1CCN(C(=O)c2cc(CN3C(=N)N[C@](CCCC(F)(F)F)(c4ccc(F)cc4)C3=O)ccc2C(F)(F)F)CC1` [Compound 84, (5R)-5-(4-fluorophenyl)-2-imino-3-[3-{[4-(4-methyl-1,2,5-oxadiazol-3-yl)piperazin-1-yl]carbonyl}-4-(trifluoromethyl)benzyl]-5-(4,4,4-trifluorobutyl)imidazolidin-4-one]: 0.0141 µM.

`C[C@H](c1cccc(C(=O)N2Cc3cnn(C)c3C2)c1)N1C(=N)NC(c2ccc(F)cc2)(c2ccc(F)cc2)C1=O` [Compound 202, 5,5-bis(4-fluorophenyl)-2-imino-3-[(1R)-1-{3-[(1-methyl-4,6-dihydropyrrolo [3,4-c]pyrazol-5(1H)-yl)carbonyl]phenyl}-ethyl]imidazolidin-4-one]: the IC50 was 0.00654 µM. The same measure for `N#Cc1ncc2c(n1)CN(C(=O)c1cc(CN3C(=N)NC(c4ccccc4)(c4ccccc4)C3=O)ccc1Cl)C2` [Compound 367, 6-({2-chloro-5-[(2-imino-5-oxo-4,4-diphenylimidazolidin-1-yl)methyl]phenyl}carbonyl)-6,7-dihydro-5H-pyrrolo[3,4-d]pyrimidine-2-carbonitrile]: 0.00513 µM. Consider `CC(C)CCC1(c2ccccc2)NC(=N)N(Cc2cccc(C(=O)N3Cc4nccnc4C3)c2)C1=O` (centres unmarked) [Compound 249, 3-[3-(5,7-dihydro-6H-pyrrolo[3,4-b]pyrazin-6-ylcarbonyl)benzyl]-2-imino-5-(3-methylbutyl)-5-phenylimidazolidin-4-one], for which the IC50 worked out at 0.0181 µM.

Regarding `CC(C)CCC1(c2ccccc2)NC(=N)N(Cc2ccc(C(F)(F)F)c(C(=O)N3CCC3)c2)C1=O` (centres unmarked) [Compound 166, 3-[3-(azetidin-1-ylcarbonyl)-4-(trifluoromethyl)benzyl]-2-imino-5-(3-methylbutyl)-5-phenylimidazolidin-4-one], the IC50 is 0.0349 µM. The same measure for `CC(C)CCC1(c2cccc(F)c2)NC(=N)N(Cc2cccc(C(=O)N3Cc4nccnc4C3)c2)C1=O` (centres unmarked) [Compound 265, 3-[3-(5,7-dihydro-6H-pyrrolo[3,4-b]pyrazin-6-ylcarbonyl)benzyl]-5-(3-fluorophenyl)-2-imino-5-(3-methylbutyl)imidazolidin-4-one]: 0.0248 µM. The same measure for `N=C1NC(c2ccc(F)cc2)(c2ccc(F)cc2)C(=O)N1Cc1cccc(C(=O)N2CCN(c3ccccn3)CC2)c1` [Compound 285, 5,5-bis(4-fluorophenyl)-2-imino-3-{3-[(4-pyridin-2-ylpiperazin-1-yl)carbonyl]benzyl} imidazolidin-4-one]: 0.0333 µM; for `N=C1NC(c2ccccc2)(c2ccccc2)C(=O)N1Cc1cccc(C(=O)N2Cc3ccc(F)cc3C2)c1` [Compound 203, 3-{3-[(5-fluoro-1,3-dihydro-2H-isoindol-2-yl)carbonyl]benzyl}-2-imino-5,5-diphenylimidazolidin-4-one]: 0.00671 µM. As for `CC(C)CC[C@]1(c2ccc(F)cc2)NC(=N)N(C(CCCc2ccccc2)c2ccc(C(F)(F)F)c(C(=O)N3CCn4c(nnc4C(F)(F)F)C3)c2)C1=O` (stereo partly drawn) [Compound 56, (5R)-5-(4-fluorophenyl)-2-imino-5-(3-methylbutyl)-3-{4-phenyl-1-[4-(trifluoromethyl)-3-{[3-(trifluoromethyl)-5,6-dihydro[1,2,4]-triazolo[4,3-a]pyrazin-7(8H)-yl]carbonyl}-phenyl]butyl}imidazolidin-4-one], the IC50 was 0.00619 µM. Turning to `CC(=O)N1CCN(C(=O)c2cccc(CN3C(=N)NC(c4ccccc4)(c4ccccc4)C3=O)c2)CC1` [Compound 352, 3-{3-[(4-acetylpiperazin-1-yl)carbonyl]benzyl}-2-imino-5,5-diphenylimidazolidin-4-one], the IC50 came to 0.0869 µM. Under `COC(=O)N1CCN(C(=O)c2cccc([C@@H](C)N3C(=N)N[C@](CCC(C)C)(c4ccccc4)C3=O)c2)CC1` [Compound 221, methyl 4-[(3-{(1R)-1-[2-imino-4-(3-methylbutyl)-5-oxo-4-phenyl-imidazolidin-1-yl]ethyl}phenyl)-carbonyl]piperazine-1-carboxylate] stands 0.0111 µM; under `N=C1NC(c2ccccc2)(c2ccccc2)C(=O)N1Cc1cccc(C(=O)N2CCN(c3ccccc3)CC2)c1` [Compound 324, 2-imino-5,5-diphenyl-3-{3-[(4-phenylpiperazin-1-yl)carbonyl]benzyl} imidazolidin-4-one], 0.0577 µM; under `N=C1NC(c2ccccc2)(c2ccc(-c3ccccc3)cc2)C(=O)N1Cc1cccc(C(=O)N2Cc3ccccc3C2)c1` (centres unmarked) [Compound 273, 5-biphenyl-4-yl-3-[3-(1,3-dihydro-2H-isoindol-2-ylcarbonyl)benzyl]-2-imino-5-phenylimidazolidin-4-one], 0.0285 µM. For `CCOC(=O)c1nc2n(c1Cl)CCN(C(=O)c1cccc(CN3C(=N)NC(c4ccccc4)(c4ccccc4)C3=O)c1)C2` [Compound 209, ethyl 3-chloro-7-({3-[(2-imino-5-oxo-4,4-diphenylimidazolidin-1-yl)methyl]phenyl}carbonyl)-5,6,7,8-tetrahydroimidazo[1,2-a]pyrazine-2-carboxylate], the IC50 came to 0.00883 µM. The same measure for `N=C1NC(CCC2CC2)(c2cccc(C(F)(F)F)c2)C(=O)N1Cc1ccc(C(F)(F)F)c(C(=O)N2Cc3nccnc3C2)c1` (centres unmarked) [Compound 75, 5-(2-cyclopropylethyl)-3-[3-(5,7-dihydro-6H-pyrrolo[3,4-b]pyrazin-6-ylcarbonyl)-4-(trifluoromethyl)-benzyl]-2-imino-5-[3-(trifluoro-methyl)phenyl]-imidazolidin-4-one]: 0.0102 µM; for `N=C1NC(C[C@@H]2CCOC2)(c2ccccc2)C(=O)N1Cc1ccc(C(F)(F)F)c(C(=O)N2CCn3c(nnc3C(F)(F)F)C2)c1` (stereo partly drawn) [Compound 105, 2-imino-5-phenyl-5-[(3R)-tetrahydrofuran-3-ylmethyl]-3-[4-(trifluoromethyl)-3-{[3-(trifluoro-methyl)-5,6-dihydro[1,2,4]triazolo-[4,3-a]pyrazin-7(8H)-yl]carbonyl}-benzyl]limidazolidin-4-one]: 0.0247 µM. Regarding `N=C1NC(c2ccc(F)cc2)(c2ccc(F)cc2)C(=O)N1Cc1ccc(C(F)(F)F)c(C(=O)N2CCC(F)(F)C2)c1` [Compound 172, 3-{3-[(3,3-difluoropyrrolidin-1-yl)carbonyl]-4-(trifluoromethyl)-benzyl}-5,5-bis(4-fluorophenyl)-2-iminoimidazolidin-4-one], the IC50 was 0.0533 µM. Under `N=C1NC(c2ccccc2)(c2ccccc2)C(=O)N1Cc1cccc(C(=O)N2CCn3nc(C(F)(F)F)nc3C2)c1` [Compound 343, 2-imino-5,5-diphenyl-3-(3-{[2-(trifluoromethyl)-5,6-dihydro-[1,2,4]triazolo[1,5-a]pyrazin-7(8H)-yl]carbonyl}benzyl) imidazolidin-4-one] stands 0.0798 µM; under `Cn1ccc2c(-c3ncc4c(n3)CN(C(=O)c3cc(CN5C(=N)N[C@](CCCC(F)(F)F)(c6ccc(F)cc6)C5=O)ccc3C(F)(F)F)C4)cccc21` [Compound 41, (5R)-5-(4-fluorophenyl)-2-imino-3-[3-{[2-(1-methyl-1H-indol-4-yl)-5,7-dihydro-6H-pyrrolo[3,4-d]pyrimidin-6-yl]carbonyl}-4-(trifluoromethyl)benzyl]-5-(4,4,4-trifluorobutyl)imidazolidin-4-one], 0.00423 µM. The same measure for `N=C1N[C@](CCCC(F)(F)F)(c2ccc(F)cc2)C(=O)N1Cc1ccc(C(F)(F)F)c(C(=O)N2Cc3cnc(N[C@@H]4CCOC4)nc3C2)c1` [Compound 36, (5R)-5-(4-fluorophenyl)-2-imino-3-[3-({2-[(3R)-tetrahydrofuran-3-ylamino]-5,7-dihydro-6H-pyrrolo[3,4-d]pyrimidin-6-yl}carbonyl)-4-(trifluoromethyl)-benzyl]-5-(4,4,4-trifluorobutyl)-imidazolidin-4-one]: 0.00351 µM.
